According to patent US20260274892A1, “MACROCYCLIC BROAD SPECTRUM ANTIBIOTICS” (RQx Pharmaceuticals, Inc., priority 2017, published 2026):

How the values were obtained:
[1] = tested on: Methicillin Resistant Staphylococcus aureus strain USA 200; assay: Minimum inhibitory concentration (MIC), CLSI broth micro-dilution, S. aureus; format: cell-based; conditions: Staphylococcus aureus, MRSA / USA200; Table 6; MRSA USA 200; cation adjusted Mueller Hinton Broth + 0.002% Tween-80; 35° C., 22 hours
Method in brief: (§1)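 Antibacterial potency is measured as MIC by the CLSI broth dilution method. Bacteria at OD600 0.0005 in Tween-80-supplemented cation-adjusted Mueller Hinton broth face ten twofold compound dilutions for 22 h at 35° C.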

[2] = tested on: Escherichia coli ATCC 25922; assay: Minimum inhibitory concentration (MIC), CLSI broth micro-dilution, E. coli; format: cell-based; conditions: Escherichia coli, ATCC25922, 22 h, Table 6, cation adjusted Mueller Hinton Broth + 0.002% Tween-80, 35° C.
Method in brief: as §1

| MIC [1] [µM] | MIC [2] [µM] | SMILES |
| --- | --- | --- |
| 0.016 | 0.13 | Cc1nc(-c2ccc(C(C)(C)c3ccccc3)cc2)ncc1C(=O)N[C@@H](CCN)C(=O)N(C)[C@@H]1C(=O)N[C@@H](C)C(=O)N[C@H](C(=O)NCC#N)Cc2ccc(OCCN)c(c2)-c2cc1ccc2OCCN (racemic) [Compound 236, rac-(8S,11S,14S)-3,18-bis(2-aminoethoxy)-N-(cyanomethyl)-11-methyl-14-[methyl-[rac-(2S)-4-amino-2-[[4-methyl-2-[4-(1-methyl-1-phenyl-ethyl)phenyl]pyrimidine-5-carbonyl]amino]butanoyl]amino]-10,13-dioxo-9,12-diazatricyclo[13.3.1.12,6]icosa-1(18),2(20),3,5,15(19),16-hexaene-8-carboxamide] |
| 0.0083 | 0.27 | Cc1nc(-c2cccc(C(C)(C)C)c2)ncc1C(=O)N[C@@H](CCN)C(=O)N(C)[C@@H]1C(=O)N[C@@H](C)C(=O)N[C@H](C(=O)NCC#N)Cc2ccc(OCCN)c(c2)-c2cc1ccc2OCCN (racemic) [Compound 237, rac-(8S,11S,14S)-3,18-bis(2-aminoethoxy)-N-(cyanomethyl)-11-methyl-14-[methyl-[rac-(2S)-4-amino-2-[[2-(3-tert-butylphenyl)-4-methyl-pyrimidine-5-carbonyl]amino]butanoyl]amino]-10,13-dioxo-9,12-diazatricyclo[13.3.1.12,6]icosa-1(18),2(20),3,5,15(19),16-hexaene-8-carboxamide] |
| 0.015 | 0.12 | Cc1nc(-c2ccc(C3C4CC5CC(C4)CC3C5)cc2)ncc1C(=O)N[C@@H](CCN)C(=O)N(C)[C@@H]1C(=O)N[C@@H](C)C(=O)N[C@H](C(=O)NCC#N)Cc2ccc(OCCN)c(c2)-c2cc1ccc2OCCN (mixture of isomers) [Compound 239, rac-(8S,11S,14S)-3,18-bis(2-aminoethoxy)-N-(cyanomethyl)-11-methyl-14-[methyl-[rac-(2S)-2-[[2-[4-(2-adamantyl)phenyl]-4-methyl-pyrimidine-5-carbonyl]amino]-4-amino-butanoyl]amino]-10,13-dioxo-9,12-diazatricyclo[13.3.1.12,6]icosa-1(18),2(20),3,5,15(19),16-hexaene-8-carboxamide] |
| 0.067 | 0.4 | Cc1nc(-c2ccc(OC(C)C)cc2)ncc1C(=O)N[C@@H](CCN)C(=O)N(C)[C@@H]1C(=O)N[C@@H](C)C(=O)N[C@H](C(=O)NCC#N)Cc2ccc(OCCN)c(c2)-c2cc1ccc2OCCN (racemic) [Compound 246, rac-(8S,11S,14S)-3,18-bis(2-aminoethoxy)-N-(cyanomethyl)-11-methyl-14-[methyl-[rac-(2S)-4-amino-2-[[2-(4-isopropoxyphenyl)-4-methyl-pyrimidine-5-carbonyl]amino]butanoyl]amino]-10,13-dioxo-9,12-diazatricyclo[13.3.1.12,6]icosa-1(18),2(20),3,5,15(19),16-hexaene-8-carboxamide] |
| 0.016 | 0.13 | CCCCCCOc1ccc(-c2ncc(C(=O)N[C@@H](CCN)C(=O)N(C)[C@@H]3C(=O)N[C@@H](C)C(=O)N[C@H](C(=O)NCC#N)Cc4ccc(OCCN)c(c4)-c4cc3ccc4OCCN)c(C)n2)cc1 (racemic) [Compound 248, rac-(8S,11S,14S)-3,18-bis(2-aminoethoxy)-N-(cyanomethyl)-11-methyl-14-[methyl-[rac-(2S)-4-amino-2-[[2-(4-hexoxyphenyl)-4-methyl-pyrimidine-5-carbonyl]amino]butanoyl]amino]-10,13-dioxo-9,12-diazatricyclo[13.3.1.12,6]icosa-1(18),2(20),3,5,15(19),16-hexaene-8-carboxamide] |

The next lines start with the molecule.

| SMILES | MIC [1] [µM] | MIC [2] [µM] |
| --- | --- | --- |
| CCCCc1ccc(-c2ncc(C(=O)N[C@@H](CCN)C(=O)N(C)[C@@H]3C(=O)N[C@@H](C)C(=O)N[C@H](C(=O)NCC#N)Cc4ccc(OCCN)c(c4)-c4cc3ccc4OCCN)c(C)n2)c(Cl)c1 (racemic) [Compound 235, rac-(8S,11S,14S)-3,18-bis(2-aminoethoxy)-N-(cyanomethyl)-11-methyl-14-[methyl-[rac-(2S)-4-amino-2-[[2-(4-butyl-2-chloro-phenyl)-4-methyl-pyrimidine-5-carbonyl]amino]butanoyl]amino]-10,13-dioxo-9,12-diazatricyclo[13.3.1.12,6]icosa-1(18),2(20),3,5,15(19),16-hexaene-8-carboxamide] | 0.016 | 0.26 |
| Cc1nc(-c2ccc(C3(C)COC3)cc2)ncc1C(=O)N[C@@H](CCN)C(=O)N(C)[C@@H]1C(=O)N[C@@H](C)C(=O)N[C@H](C(=O)NCC#N)Cc2ccc(OCCN)c(c2)-c2cc1ccc2OCCN (racemic) [Compound 238, rac-(8S,11S,14S)-3,18-bis(2-aminoethoxy)-N-(cyanomethyl)-11-methyl-14-[methyl-[rac-(2S)-4-amino-2-[[4-methyl-2-[4-(3-methyloxetan-3-yl)phenyl]pyrimidine-5-carbonyl]amino]butanoyl]amino]-10,13-dioxo-9,12-diazatricyclo[13.3.1.12,6]icosa-1(18),2(20),3,5,15(19),16-hexaene-8-carboxamide] | 0.53 | 2.1 |
| CCCCCCCc1ccc(-c2ncc(C(=O)N[C@@H](CCN)C(=O)N(C)[C@@H]3C(=O)N[C@@H](C)C(=O)N[C@H](C(=O)NCC#N)Cc4ccc(OCCN)c(c4)-c4cc3ccc4OCCN)c(C)n2)cc1 (racemic) [Compound 240, rac-(8S,11S,14S)-3,18-bis(2-aminoethoxy)-N-(cyanomethyl)-11-methyl-14-[methyl-[rac-(2S)-4-amino-2-[[2-(4-heptylphenyl)-4-methyl-pyrimidine-5-carbonyl]amino]butanoyl]amino]-10,13-dioxo-9,12-diazatricyclo[13.3.1.12,6]icosa-1(18),2(20),3,5,15(19),16-hexaene-8-carboxamide] | 0.012 | 0.13 |
| CCCCOc1ccc(-c2ncc(C(=O)N[C@@H](CCN)C(=O)N(C)[C@@H]3C(=O)N[C@@H](C)C(=O)N[C@H](C(=O)NCC#N)Cc4ccc(OCCN)c(c4)-c4cc3ccc4OCCN)c(C)n2)c(C)c1 (racemic) [Compound 242, rac-(8S,11S,14S)-3,18-bis(2-aminoethoxy)-N-(cyanomethyl)-11-methyl-14-[methyl-[rac-(2S)-4-amino-2-[[2-(4-butoxy-2-methyl-phenyl)-4-methyl-pyrimidine-5-carbonyl]amino]butanoyl]amino]-10,13-dioxo-9,12-diazatricyclo[13.3.1.12,6]icosa-1(18),2(20),3,5,15(19),16-hexaene-8-carboxamide] | 0.016 | 0.39 |
| CCCCOc1c(C)cc(-c2ncc(C(=O)N[C@@H](CCN)C(=O)N(C)[C@@H]3C(=O)N[C@@H](C)C(=O)N[C@H](C(=O)NCC#N)Cc4ccc(OCCN)c(c4)-c4cc3ccc4OCCN)c(C)n2)cc1C (racemic) [Compound 243, rac-(8S,11S,14S)-3,18-bis(2-aminoethoxy)-N-(cyanomethyl)-11-methyl-14-[methyl-[rac-(2S)-4-amino-2-[[2-(4-butoxy-3,5-dimethyl-phenyl)-4-methyl-pyrimidine-5-carbonyl]amino]butanoyl]amino]-10,13-dioxo-9,12-diazatricyclo[13.3.1.12,6]icosa-1(18),2(20),3,5,15(19),16-hexaene-8-carboxamide] | 0.008 | 0.13 |
| CCCCOc1ccc(-c2ncc(C(=O)N[C@@H](CCN)C(=O)N(C)[C@@H]3C(=O)N[C@@H](C)C(=O)N[C@H](C(=O)NCC#N)Cc4ccc(OCCN)c(c4)-c4cc3ccc4OCCN)c(C)n2)cc1Cl (racemic) [Compound 247, rac-(8S,11S,14S)-3,18-bis(2-aminoethoxy)-N-(cyanomethyl)-11-methyl-14-[methyl-[rac-(2S)-4-amino-2-[[2-(4-butoxy-3-chloro-phenyl)-4-methyl-pyrimidine-5-carbonyl]amino]butanoyl]amino]-10,13-dioxo-9,12-diazatricyclo[13.3.1.12,6]icosa-1(18),2(20),3,5,15(19),16-hexaene-8-carboxamide] | 0.016 | 0.19 |
| Cc1nc(-c2ccc3c(c2)CCC(C)(C)O3)ncc1C(=O)N[C@@H](CCN)C(=O)N(C)[C@@H]1C(=O)N[C@@H](C)C(=O)N[C@H](C(=O)NCC#N)Cc2ccc(OCCN)c(c2)-c2cc1ccc2OCCN (racemic) [Compound 249, rac-(8S,11S,14S)-3,18-bis(2-aminoethoxy)-N-(cyanomethyl)-11-methyl-14-[methyl-[rac-(2S)-4-amino-2-[[2-(2,2-dimethylchroman-6-yl)-4-methyl-pyrimidine-5-carbonyl]amino]butanoyl]amino]-10,13-dioxo-9,12-diazatricyclo[13.3.1.12,6]icosa-1(18),2(20),3,5,15(19),16-hexaene-8-carboxamide] | 0.043 | 0.35 |
| Cc1nc(-c2ccc(OC(C)(C)C)cc2)ncc1C(=O)N[C@@H](CCN)C(=O)N(C)[C@@H]1C(=O)N[C@@H](C)C(=O)N[C@H](C(=O)NCC#N)Cc2ccc(OCCN)c(c2)-c2cc1ccc2OCCN (racemic) [Compound 250, rac-(8S,11S,14S)-3,18-bis(2-aminoethoxy)-N-(cyanomethyl)-11-methyl-14-[methyl-[rac-(2S)-4-amino-2-[[2-(4-tert-butoxyphenyl)-4-methyl-pyrimidine-5-carbonyl]amino]butanoyl]amino]-10,13-dioxo-9,12-diazatricyclo[13.3.1.12,6]icosa-1(18),2(20),3,5,15(19),16-hexaene-8-carboxamide] | 0.066 | 0.35 |
